# From patent US6087383A (Bristol-Myers Squibb Company, priority 1998, dated 2000)
# Where a name gives a salt, the structure may show the parent alone. Read-outs that look alike come from different tables or passages of the source.
# Assays:
# [1] = dog, in vivo
# [2] = Text: (§1) In general, conversion of salts to the unionized form or vice versa can be explained on the basis of pH-solubility theory. […] At pH<pHmax the equilibrium solid converts to the corresponding salt form. The term "equilibrium solid phase" refers to the undissolved or excess solid in a suspension of the compound in water after sufficient equilibration time. When a salt of a weak base is equilibrated in water in an amount exceeding its solubility limit (i.e., a suspension of the salt in water), the resulting pH of the suspension may fall on either side of the pHmax depending on the strength of the acid among other factors. When the resulting pH is greater than the pHmax, the suspended solid converts to the free base.
# [3] = Oral bioavailability in animals; format: in vivo; conditions: crystalline free base form as a suspension in water or oil
# [4] = pH 1.8
# [5] = Aqueous solubility at 24±3° C.; conditions: water
# Text: For development of pharmaceutical formulations, particularly oral dosage forms, the active ingredient must have sufficient oral bioavailability.
# [6] = Equilibration of excess salt in water: suspension pH and identity of undissolved solid phase; format: physicochemical; conditions: for pH of the suspension after equilibration / identity of undissolved solid phase after equilibration in water: excess salt in water; for pH of the suspension after equilibration: at least 24 hours (24±3° C. for methane sulfonate and hydrochloride); for identity of undissolved solid phase after equilibration in water: thermal and/or elemental analysis
# Text: as §1
# The undissolved solids from these suspensions were isolated, air-dried, and characterized.
# [7] = 40° C./75% RH; for changes in thermal behavior: as little as two weeks
# Description: The term physical stability indicates the ability of the salt form to retain its crystal structure (including solvents of crystallization, if any) under storage/stress conditions. Significant changes in the physical nature of the salt form as indicated by thermal methods such as differential scanning calorimetry are undesirable. […] The solid line represents the unstressed material. The dotted line represents the material stressed at 40° C./75% RH for 9 months. […] The solid line represents the unstressed material. The dotted line represents the material stressed at 40° C./75% RH for two weeks. […] The solid line represents the unstressed material. […] The solid line represents the unstressed material. The dotted line represents the material stressed at 40° C./75% RH for two weeks.
# [8] = in vivo; conditions: dog, po
# [9] = Crystal form characterisation (hygroscopicity); format: physicochemical; conditions: crystals obtained from isopropanol
# Text: They are now referred to as Type-II crystals. The Type-I crystals appear to be an anhydrous/desolvated crystalline material while the Type-II crystals are a hydrated, hygroscopic crystalline form.
Structure (SMILES),solubility in water [4],pH of the suspension after equilibration [6],identity of undissolved solid phase after equilibration in water [6],changes in thermal behavior [7],further results
"COC(=O)N[C@H](C(=O)N[C@@H](Cc1ccccc1)[C@@H](O)CN(Cc1ccc(-c2ccccn2)cc1)NC(=O)[C@@H](NC(=O)OC)C(C)(C)C)C(C)(C)C [Compound I, [3S-(3R*, 8'R*, 9'R*, 12R*)]-3,12-bis(1,1-dimethylethyl)-8-hydroxy-4,11-dioxo-9-(phenylmethyl)-6-[[4-(2-pyridinyl)phenylmethyl]-2,5,6,10,13-pentaazatetradecanedioic] acid, dimethyl ester]",less than 1 mg/mL,–,–,–,oral bioavailability [1]: minimal oral bioavailability; pHmax (pH at which the compound exhibits the highest solubility) [2]: approximately 1.2; oral bioavailability [3]: poor oral bioavailability
COC(=O)N[C@H](C(=O)N[C@@H](Cc1ccccc1)[C@@H](O)CN(Cc1ccc(-c2ccccn2)cc1)NC(=O)[C@@H](NC(=O)OC)C(C)(C)C)C(C)(C)C [benzenesulfonate],–,–,–,–,solubility [5]: 1000 to 3000 µg/mL
COC(=O)N[C@H](C(=O)N[C@@H](Cc1ccccc1)[C@@H](O)CN(Cc1ccc(-c2ccccn2)cc1)NC(=O)[C@@H](NC(=O)OC)C(C)(C)C)C(C)(C)C [methanesulfonate],–,2.1±0.1,identified as the free base,significant changes in their thermal behavior,–
COC(=O)N[C@H](C(=O)N[C@@H](Cc1ccccc1)[C@@H](O)CN(Cc1ccc(-c2ccccn2)cc1)NC(=O)[C@@H](NC(=O)OC)C(C)(C)C)C(C)(C)C [bisulfate salt],4000 to 5000 µg/mL,1.9±0.2,hydrated form of 2:1 salt of the free base form and sulfuric acid,–,"solid state transformation when suspended in water ([6]; suspension in water): prevents the conversion to the free base; changes in thermal behavior (differential scanning calorimetry) ([7]; 9 months, vs unstressed sample (2-8° C. closed container)): no significant changes in the thermal behavior; bioavailability [8]: ~20%"
COC(=O)N[C@H](C(=O)N[C@@H](Cc1ccccc1)[C@@H](O)CN(Cc1ccc(-c2ccccn2)cc1)NC(=O)[C@@H](NC(=O)OC)C(C)(C)C)C(C)(C)C [hydrochloride],–,2.1±0.1,identified as the free base,significant changes in their thermal behavior,–
COC(=O)N[C@H](C(=O)N[C@@H](Cc1ccccc1)[C@@H](O)CN(Cc1ccc(-c2ccccn2)cc1)NC(=O)[C@@H](NC(=O)OC)C(C)(C)C)C(C)(C)C [Type-II crystals],–,–,–,–,hygroscopicity [9]: hygroscopic
